Data on three molecules can be found in paper PMC8791557 (Environment international, 2021).

The format of data set [1] is in vivo, human. The following applies: for Tmax of metabolite: median; for k1e / k12 / k21 / ka / α / β: two-compartmental model.
For data set [2] the following is noted: human, in vivo; cited from earlier work.
The mark [3] stands for this setting: metabolite in plasma after 25 ng [14C]-BaP oral.
Where [4] appears, read: metabolite in plasma after 50 ng [14C]-BaP oral.
Where [5] appears, read: metabolite in plasma after 100 ng [14C]-BaP oral.
Setting [6] is: metabolite in plasma after 250 ng [14C]-BaP oral.
The mark [7] stands for this setting: 50 ng [14C]-BaP oral, mean ± SD.
Setting [8] is: 100 ng [14C]-BaP oral, mean ± SD.
Setting [9] is: 250 ng [14C]-BaP oral, mean ± SD.

Read-outs that look alike come from different tables or passages of the source.

With `Oc1ccc2cc3ccc4cccc5ccc(c2c1)c3c45` [9-OH, 9 - OH BaP], the Tmax of metabolite in data set [1] (setting [3]) is 0.5 h; in data set [1] (setting [4]), 1.0 h; in data set [1] (setting [5]), 1.0 h; in data set [1] (setting [6]), 0.75 h.

Turning to `Oc1ccc2ccc3c4ccccc4cc4ccc1c2c43` [3-OH, 3 - OH BaP], the Tmax of metabolite in data set [1] (setting [3]) is recorded as 1.0 h; in data set [1] (setting [4]) it was 1.25 h; in data set [1] (setting [5]) it was 1.0 h; in data set [1] (setting [6]) it was 1.5 h.

As for `c1ccc2c(c1)cc1ccc3cccc4ccc2c1c34` [[^14C]-BaP, Benzo[a]pyrene], the Tmax in data set [2] is 0.75 to 1.0 h; in data set [1] (both, human, in vivo, Tmax), 0.5 to 1 h; in data set [1] (both, human, in vivo, median Tmax) it was 0.5 h; in data set [1] (both, human, in vivo, po, Tmax (Median)), 0.5 h; in data set [1] (both, human, in vivo, po, Tmax (Range)) it was 0.5 to 4 h; in data set [1] (both, human, in vivo, po, median Tmax) it was 0.5 h. Further, the k1e is given as 0.0068 NA 1/h in data set [1] (25 ng [14C]-BaP oral, n = 1); 0.694 ± 0.412 n = 5 1/h in data set [1] (setting [7]); 0.558 ± 0.897 n = 6 1/h in data set [1] (setting [8]); 1.25 ± 1.71 n = 7 1/h in data set [1] (setting [9]). Moreover, the k12 is 0.331 NA 1/h in data set [1] (25 ng [14C]-BaP oral, n = 1); 0.83 ± 1.11 n = 5 1/h in data set [1] (setting [7]); 2.60 ± 3.45 n = 6 1/h in data set [1] (setting [8]); 4.27 ± 6.92 n = 7 1/h in data set [1] (setting [9]). The k21 in data set [1] (25 ng [14C]-BaP oral, n = 1) was 0.028 NA 1/h; in data set [1] (setting [7]) it was 0.270 ± 0.253 n = 5 1/h; in data set [1] (setting [8]), 0.190 ± 0.180 n = 6 1/h; in data set [1] (setting [9]), 0.290 ± 0.564 n = 7 1/h. Moreover, the ka in data set [1] (25 ng [14C]-BaP oral, n = 1) was 592 NA 1/h; in data set [1] (setting [7]), 1.30 × 10^7 ± 2.90 × 10^7 n = 5 1/h; in data set [1] (setting [8]), 3.52 ± 4.75 n = 6 1/h; in data set [1] (setting [9]), 43.2 ± 111 n = 7 1/h. Moreover, the α in data set [1] (25 ng [14C]-BaP oral, n = 1) was 0.366 NA 1/h; in data set [1] (setting [7]) it was 1.69 ± 0.89 n = 5 1/h; in data set [1] (setting [8]), 3.33 ± 4.28 n = 6 1/h; in data set [1] (setting [9]), 5.80 ± 6.64 n = 7 1/h. Besides, the β is given as 5.03 × 10^−4 NA 1/h in data set [1] (25 ng [14C]-BaP oral, n = 1); 0.105 ± 0.164 n = 5 1/h in data set [1] (setting [7]); 0.020 ± 0.021 n = 6 1/h in data set [1] (setting [8]); 0.014 ± 0.019 n = 7 1/h in data set [1] (setting [9]). In data set [1] (both, human, in vivo), the “increase of compartmental model apparent volume of distribution” value stood at 4.6 ×. Besides, the “increase of mean non-compartmental apparent volume of distribution” value in data set [1] (both, human, in vivo) was 15 ×. Further, the half-life in data set [1] (both, human, in vivo, average half-life across doses) was 46.5 ± 58.2 h; in data set [1] (both, human, in vivo, po, α half-life), 0.484 ± 0.187 h; in data set [1] (human, in vivo, po, Half-life), 4.31 h; in data set [1] (human, in vivo, po, α half-life), 1.89 h; in data set [1] (human, in vivo, po, β half-life), 1310 h. Also, the “AUC0–48h, range of dose-group means” value in data set [1] (human, in vivo) was 12.2 ± 14.5 to 88.5 ± 14.1. Moreover, in data set [1] (human, in vivo), the “Cmax, range of dose-group means” value is 2.51 ± 2.53 to 13.8 ± 9.52. Besides, the Clearance in data set [1] (human, in vivo, po) amounted to 811 n = 1 L/h.
